As usually defined, the IC50 is the midpoint of a concentration-inhibition curve. In general, melting point refers to the temperature, or range, at which the solid turns liquid.

Series [1] has as its system lipid peroxidation (LPO) of rat brain homogenate. As to the kind of experiment: Lipid peroxidation (LPO) of rat brain homogenate, TBARS test. Format: biochemical. Conditions: substances at 100 μM, mean ± SEM; for % of Activity, Inhibition of LPO, Fe (II): Fe (II)-induced; for % of Activity, Inhibition of LPO, t-BHP: t-BHP-induced. As for the experimental part: To obtain the brain homogenate, rats preliminarily anesthetized with CO2 were decapitated with a guillotine. The brain was homogenized in a buffer containing KCl (120 mM) and HEPES (20 mM), pH = 7.4 at 4 °C, and centrifuged at 1500 rpm to obtain a supernatant. The protein was quantified according to the standard microbiuret method.
To investigate the effect of the compounds on lipid peroxidation (LPO) of rat brain homogenate, we used the modified version of the TBARS test, which is based on the reaction of 2-thiobarbituric acid with the end LPO product—malonic dialdehyde (MDA). The plate well, according to the experimental scheme, contained the compounds under study (100 μM), rat brain homogenate (2 mg/mL), as well as ferrous iron ions ([…]) at a concentration of 500 μM and 1.6 mM tert-butyl hydroxyperoxide as an initiator. After 30 min of incubation at 37 °C, TBARS reagent was added to all samples, incubated for 90 min at 90 °C, and centrifuged at 6000 rpm for 15 min. The optical density of the selected supernatant was measured on a Victor 3 plate reader (Perkin Elmer) at λ = 540 nm.
A rat brain homogenate preparation containing fragments of cell membranes was used as a model system to investigate the antioxidant activity of the hydroxamic acids. To initiate the process of lipid peroxidation, ferrous ions were used to trigger the Fenton reaction, during which the iron valence changes and a highly reactive hydroxyl radical is formed, and tert-butyl hydroxyperoxide as a direct source of free radicals.

A short description of series [2]: DPPH test of antiradical activity. Conditions: substances at 100 μM, mean ± SEM. As for the experimental part:
The DPPH test was used to examine antiradical activity based on the ability of a stable chromogen radical of 2,2-diphenyl-1-picrylhydrazyl (DPPH) to remove a hydrogen atom, which is accompanied by a change in the absorption maximum in the electronic absorption spectra. The amount of reduced DPPH was measured using a Cytation ™ 3 multifunctional plate analyzer (BioTek Instruments, Inc., Winooski, VT, USA) at a wavelength of 517 nm.
The antiradical activity of the test compounds was evaluated by the DPPH test, based on the ability of antioxidants to donate an electron to the stable chromogen radical DPPH, converting it into a nonradical form and neutralizing its activity. […] The chromogenic free radical DPPH used in this test has a large size, and substances even with a similar chemical structure may have different antiradical properties due to spatially difficult access.
For orientation: The DPPH test is a chemical assay of radical scavenging.

In series [3] the test system is SH-SY5Y cells. Kind of series: MTT cell viability, SH-SY5Y. The class given is cell-based. Conditions: Homo sapiens, MTT test. As for the experimental part: (§1) The effect of the hydroxamic acids on the viability of cells obtained from human embryonic kidneys, HEK 293, as well as the native form of human neuroblastoma, SH-SY5Y, was evaluated in the MTT test. Using a multifunctional flatbed analyzer, Cytation™3 (BioTek Instruments, Inc., Winooski, VT, USA), the optical density was determined at a wavelength of 530 nm. Based on the dose-dependent curves, the concentration values leading to 50% inhibition of cell population growth (IC50) were calculated.
(§2) Due to the fact that most compounds of the class of hydroxamic acids have high cytotoxic activity and are mainly used as anticancer drugs, their use as neuroprotective drugs is limited. Since the goal of our work was to search for agents for the pharmacological correction of neurodegenerative diseases, a necessary part of the biological activity study of the synthesized hydroxamic acids was to determine their effect on the survival of cell cultures. In our work, we used neuron-like neuroblastoma cells SH-SY5Y and a healthy cell line isolated from the human embryonic kidney, HEK 293.
In general terms: Tetrazolium assays rely on reduction of a dye to a coloured formazan, in cell work by metabolically active cells.

Series [4] relates to HEK 293 cells. Kind of series: MTT cell viability, HEK 293. Conditions: Homo sapiens, HEK293; HEK-293, MTT test. Format: cell-based. The procedure: as §1, §2
The target in series [5] is T1, HDAC6 (Homo sapiens, UniProt Q9UBN7).
T1 construct: purchased Enzo Life Sciences (Enzo Biochem, New York, NY, USA)
T1 sequence (Q9UBN7 1-1215): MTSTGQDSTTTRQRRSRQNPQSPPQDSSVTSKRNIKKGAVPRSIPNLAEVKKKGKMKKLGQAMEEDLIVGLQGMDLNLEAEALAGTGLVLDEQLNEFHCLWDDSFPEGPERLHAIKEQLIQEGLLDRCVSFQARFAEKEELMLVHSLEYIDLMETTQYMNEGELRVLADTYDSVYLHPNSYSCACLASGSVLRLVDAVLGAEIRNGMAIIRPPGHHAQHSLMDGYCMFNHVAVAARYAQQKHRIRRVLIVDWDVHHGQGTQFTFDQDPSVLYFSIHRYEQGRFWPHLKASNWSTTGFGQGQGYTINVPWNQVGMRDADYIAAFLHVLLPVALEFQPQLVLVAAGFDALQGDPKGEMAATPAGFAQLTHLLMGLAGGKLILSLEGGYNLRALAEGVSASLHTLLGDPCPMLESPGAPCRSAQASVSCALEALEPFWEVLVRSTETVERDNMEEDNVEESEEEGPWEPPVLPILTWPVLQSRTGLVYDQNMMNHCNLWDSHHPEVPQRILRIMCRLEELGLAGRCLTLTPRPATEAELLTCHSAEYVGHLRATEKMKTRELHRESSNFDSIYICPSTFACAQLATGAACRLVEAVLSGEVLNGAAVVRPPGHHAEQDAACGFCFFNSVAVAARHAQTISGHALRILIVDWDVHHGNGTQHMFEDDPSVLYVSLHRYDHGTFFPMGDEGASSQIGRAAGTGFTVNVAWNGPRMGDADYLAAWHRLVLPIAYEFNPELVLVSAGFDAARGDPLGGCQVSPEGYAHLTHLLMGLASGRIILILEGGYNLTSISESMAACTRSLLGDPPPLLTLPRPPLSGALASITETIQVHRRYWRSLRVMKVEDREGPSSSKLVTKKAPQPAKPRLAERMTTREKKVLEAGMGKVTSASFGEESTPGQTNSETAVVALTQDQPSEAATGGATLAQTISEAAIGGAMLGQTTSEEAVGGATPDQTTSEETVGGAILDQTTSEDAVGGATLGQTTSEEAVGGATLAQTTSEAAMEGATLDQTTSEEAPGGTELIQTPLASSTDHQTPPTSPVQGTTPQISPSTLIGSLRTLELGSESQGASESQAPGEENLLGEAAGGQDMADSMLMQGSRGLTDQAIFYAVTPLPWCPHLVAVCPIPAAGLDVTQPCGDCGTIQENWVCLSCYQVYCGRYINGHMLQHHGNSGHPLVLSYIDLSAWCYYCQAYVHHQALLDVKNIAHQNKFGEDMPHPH
Kind of series: HDAC6 enzyme activity, FLUOR DE LYS fluorometric kit. The class given is biochemical. Conditions: mean ± SEM; read-out: IC50 HDAC6 Inhibitory Activity.

As to `CC(/C=C/C(=O)NO)=C\[C@@H](C)C(=O)c1ccc(N(C)C)cc1` [Trich. A, Trichostatin A, reference compound], in series [1], the “% of Activity, Inhibition of LPO, Fe (II)” value is “- (The ‘-’ mark indicates the lack of activity of the test substances (≤10%) in a particular test)” and the “% of Activity, Inhibition of LPO, t-BHP” value is “- (The ‘-’ mark indicates the lack of activity of the test substances (≤10%) in a particular test)”. Besides, the “% of Activity, Antiradical Activity” value in series [2] is on record as “- (The ‘-’ mark indicates the lack of activity of the test substances (≤10%) in a particular test)”.
`Cc1c(C)c2c(c(C)c1O)CCC(C)(C(=O)O)O2` (stereo not drawn) [Trolox, reference compound]: in series [1], the “% of Activity, Inhibition of LPO, Fe (II)” value is given as 97.21 ± 4.09% and the “% of Activity, Inhibition of LPO, t-BHP” value is 99.11 ± 3.72%.
Consider `O=C(NO)C12CC3CC(CC(C3)C1)C2` [compound 1, N-Hydroxyadamantane-1-Carboxamide], for which the melting point fell in the range of 149 to 149.3 °C. Besides, in series [1], the “% of Activity, Inhibition of LPO, Fe (II)” value is listed as “- (The ‘-’ mark indicates the lack of activity of the test substances (≤10%) in a particular test)” and the “% of Activity, Inhibition of LPO, t-BHP” value was “- (The ‘-’ mark indicates the lack of activity of the test substances (≤10%) in a particular test)”. Also, in series [2], the “% of Activity, Antiradical Activity” value is given as “- (The ‘-’ mark indicates the lack of activity of the test substances (≤10%) in a particular test)”. The molecule further gave an IC50 in series [3] greater than 100 µM. For the same molecule, in series [4], the IC50 was greater than 100 µM.
`O=C(NO)C1C2CC3CC(C2)CC1C3` (stereo not drawn) [compound 2, N-Hydroxyadamantane-2-Carboxamide] gave a melting point of 173.4 °C. In series [1], the “% of Activity, Inhibition of LPO, Fe (II)” value is given as “- (The ‘-’ mark indicates the lack of activity of the test substances (≤10%) in a particular test)” and the “% of Activity, Inhibition of LPO, t-BHP” value is on record as “- (The ‘-’ mark indicates the lack of activity of the test substances (≤10%) in a particular test)”. The “% of Activity, Antiradical Activity” value in series [2] was 32.02 ± 3.33%. For the same molecule, in series [3], the IC50 was greater than 100 µM. The molecule further gave an IC50 in series [4] greater than 100 µM.
`CC1(C)[C@@H]2CC[C@@]1(C)[C@H](NC(=O)CCCCCCC(=O)NO)C2` [compound 11, N^1-Hydroxy-N^8-((1R,2R,4R)-1,7,7-Trimethylbicyclo [2.2.1]heptan-2-yl)octanediamide]: the melting point was determined as 94.8 °C. In series [1], the “% of Activity, Inhibition of LPO, Fe (II)” value is 28.39 ±7.41% and the “% of Activity, Inhibition of LPO, t-BHP” value stood at 35.96 ± 1.99%. For the same molecule, the “% of Activity, Antiradical Activity” value in series [2] stood at 22.22 ± 1.40%. Further, the IC50 in series [5] is 0.69 ± 0.02 µM. In series [3], this molecule had an IC50 of 51.9 ± 3.56 µM. Moreover, in series [4], the IC50 is greater than 100 µM.
The molecule `CC1(C)[C@@H]2CC[C@@]1(C)[C@H](NC(=O)CCCCCCCC(=O)NO)C2` [compound 12, N^1-Hydroxy-N^9-((1R,2R,4R)-1,7,7-Trimethylbicyclo [2.2.1]heptan-2-yl)nonanediamide] gave a melting point of 50.4 °C. Further, in series [1], the “% of Activity, Inhibition of LPO, Fe (II)” value is 44.02 ± 1.57% and the “% of Activity, Inhibition of LPO, t-BHP” value came to 30.36 ± 1.98%. In addition, the “% of Activity, Antiradical Activity” value in series [2] is listed as “- (The ‘-’ mark indicates the lack of activity of the test substances (≤10%) in a particular test)”. Also, in series [5], the IC50 came to 4.06 ± 0.48 µM. This molecule also showed an IC50 in series [3] greater than 100 µM. For the same molecule, in series [4], the IC50 is greater than 100 µM.
Molecule `CC1(C)[C@H]2CC[C@](C)(C2)[C@H]1NC(=O)CCCCCCC(=O)NO` [compound 13, N^1-Hydroxy-N^8-((1R,2R,4S)-1,3,3-Trimethylbicyclo[2.2.1]heptan-2-yl)octanediamide] showed a melting point of 45.1 °C. Further, in series [1], the “% of Activity, Inhibition of LPO, Fe (II)” value worked out at 28.90 ± 3.38% and the “% of Activity, Inhibition of LPO, t-BHP” value is on record as 24.02 ± 3.44%. Also, the “% of Activity, Antiradical Activity” value in series [2] is “- (The ‘-’ mark indicates the lack of activity of the test substances (≤10%) in a particular test)”. Besides, the IC50 in series [5] was 9.44 ± 0.74 µM. Also, the IC50 in series [3] was greater than 100 µM. Moreover, the 50% inhibitory concentration (IC50) in series [4] was greater than 100 µM.
As for `CC1(C)[C@H]2CC[C@](C)(C2)[C@H]1NC(=O)CCCCCCCC(=O)NO` [compound 14, N^1-Hydroxy-N^9-((1R,2R,4S)-1,3,3-Trimethylbicyclo[2.2.1]heptan-2-yl)nonanediamide], the melting point is 44.9 °C. In series [1], the “% of Activity, Inhibition of LPO, Fe (II)” value is recorded as 37.91 ± 1.08% and the “% of Activity, Inhibition of LPO, t-BHP” value came to 22.62 ± 4.31%. In series [2], the “% of Activity, Antiradical Activity” value is given as “- (The ‘-’ mark indicates the lack of activity of the test substances (≤10%) in a particular test)”. In series [5], the IC50 is 4.48 ± 0.13 µM. The same molecule showed an IC50 in series [3] greater than 100 µM. Further, the IC50 in series [4] is greater than 100 µM.

Values taken from publication PMC8623418, “Novel Multitarget Hydroxamic Acids with a Natural Origin CAP Group against Alzheimer’s Disease: Synthesis, Docking and Biological Evaluation” (Pharmaceutics, 2021).
